{"source": "patent US12714686B2", "about": "“N-propargylglycine: a unique inhibitor of proline dehydrogenase with brain-enhancing mitohormesis properties capable of mitigating the pathogenesis of neurodegenerative disorders” (Buck Institute for Research on Aging, priority 2020, dated 2026)", "key": {"[1]": {"target": "T1, proline dehydrogenase (PRODH) (Homo sapiens, UniProt O43272)", "T1 sequence (O43272 1-600)": "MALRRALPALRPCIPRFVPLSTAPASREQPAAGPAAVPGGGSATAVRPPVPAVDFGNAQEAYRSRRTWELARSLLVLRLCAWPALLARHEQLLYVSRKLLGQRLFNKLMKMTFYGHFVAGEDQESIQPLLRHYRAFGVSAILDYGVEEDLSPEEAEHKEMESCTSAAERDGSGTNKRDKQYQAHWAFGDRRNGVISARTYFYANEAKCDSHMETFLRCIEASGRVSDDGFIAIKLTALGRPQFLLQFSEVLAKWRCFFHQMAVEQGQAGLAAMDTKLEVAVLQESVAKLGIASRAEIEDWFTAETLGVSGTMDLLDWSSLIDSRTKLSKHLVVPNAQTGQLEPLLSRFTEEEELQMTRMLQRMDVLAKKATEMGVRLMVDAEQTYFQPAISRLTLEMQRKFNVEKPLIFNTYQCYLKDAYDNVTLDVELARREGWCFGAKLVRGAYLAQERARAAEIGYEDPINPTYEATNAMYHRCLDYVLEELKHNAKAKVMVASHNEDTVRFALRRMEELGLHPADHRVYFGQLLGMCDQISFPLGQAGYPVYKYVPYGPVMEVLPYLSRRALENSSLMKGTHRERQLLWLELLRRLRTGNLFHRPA", "assay": "PRODH enzyme inhibition", "format": "biochemical"}, "[2]": {"test_system": "PRODH expressing mammalian cell systems", "assay": "UPRmt activation and mitohormesis induction in PRODH expressing mammalian cell systems", "format": "cell-based", "conditions": "all PRODH expressing mammalian cell systems studied to date"}, "[3]": {"assay": "Brain penetration of orally administered N-PPG", "format": "in vivo", "conditions": "oral, repeated administration; inferred from brain UPRmt induction"}, "[4]": {"test_system": "Htt-mut mouse brain transcriptome", "assay": "Study B: whole brain RNA transcriptome (RNAseq) of Htt-mut mice", "format": "in vivo", "experimental": "(§1) For Study B, beginning at 5-weeks of age, four male and female Htt-mut mice (HT) were administered oral N-PPG at 50 mg/kg daily for 9 days, while four other age- and sex-matched Htt-mut mice (H) were given only daily saline. All Study A and B mice were sacrificed within 4 h of receiving their last treatment (week 7). […] Excised brains were snap frozen in liquid nitrogen for latter cryopulverization, extraction and analysis of total brain RNA and protein."}, "PRODH [5]": {"target": "T2, PRODH (Mus musculus, UniProt Q9WU79)", "T2 construct": "Western blots of whole brain lysates from wildtype B6/CBA mice; from tissue; R6/2 Htt-mut in B6/CBA background", "T2 sequence (Q9WU79 1-599)": "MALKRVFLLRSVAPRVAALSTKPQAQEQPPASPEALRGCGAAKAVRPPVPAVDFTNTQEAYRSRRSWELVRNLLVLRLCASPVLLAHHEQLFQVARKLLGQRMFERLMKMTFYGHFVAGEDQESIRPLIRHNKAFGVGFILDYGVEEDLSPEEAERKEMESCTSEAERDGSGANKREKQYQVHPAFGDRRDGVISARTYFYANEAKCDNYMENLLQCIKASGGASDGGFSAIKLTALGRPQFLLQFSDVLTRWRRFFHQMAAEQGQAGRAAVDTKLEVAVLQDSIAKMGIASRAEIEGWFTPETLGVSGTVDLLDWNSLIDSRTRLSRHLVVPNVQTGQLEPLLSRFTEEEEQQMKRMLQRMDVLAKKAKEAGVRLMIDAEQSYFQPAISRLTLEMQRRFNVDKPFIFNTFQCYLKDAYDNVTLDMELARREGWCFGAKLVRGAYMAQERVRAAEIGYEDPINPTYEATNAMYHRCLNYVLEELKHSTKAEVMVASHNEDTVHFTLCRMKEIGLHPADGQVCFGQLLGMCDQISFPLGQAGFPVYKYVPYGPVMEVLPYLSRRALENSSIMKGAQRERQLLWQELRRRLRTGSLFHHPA", "assay": "Study B: oral N-PPG in Htt-mut (R6/2) mice, whole brain PRODH protein", "format": "in vivo", "conditions": "HT mice, 50 mg/kg/day orally x 9 days vs saline, compared with wildtype", "experimental": "as §1"}, "HSP-60": {"test_system": "HSP-60", "assay": "Study A: brain chaperone HSP-60 transcripts by RT-PCR", "format": "in vivo", "conditions": "single mouse brain, 200 mg/kg oral N-PPG, 9 days", "experimental": "(§2) For Study A, beginning at 5 weeks of age, seven male and female mice (WT) were daily administered oral N-PPG over a graduated dose range of 50 mg/kg to 200 mg/kg for 9 days, while 4 other age- and sex-matched control mice (W) were given only daily saline.\nas §1"}, "YME1L1 [6]": {"test_system": "YME1L1", "assay": "Study B: brain YME1L1 in Htt-mut and wildtype mice", "format": "in vivo, mouse", "conditions": "50 mg/kg/day oral N-PPG, 9 days", "experimental": "as §1"}, "PRODH [7]": {"target": "T2, PRODH", "assay": "Study A: oral N-PPG in wildtype mice, whole brain PRODH protein (western blot) and mRNA", "format": "in vivo", "conditions": "whole brain lysates", "experimental": "as §2, §1"}, "YME1L1 [8]": {"test_system": "YME1L1", "assay": "Study A: brain UPRmt protease YME1L1 mRNA and protein expression", "format": "in vivo, mouse", "experimental": "as §2, §1"}, "[9]": {"assay": "Tolerability of oral N-PPG in Study A and B mice (body weight, vitality, side effects)", "format": "in vivo, mouse", "experimental": "as §2, §1"}, "[10]": {"test_system": "mouse brain transcriptome", "assay": "Study A: whole brain transcriptome (RNAseq) and pathway analysis", "format": "in vivo", "experimental": "as §2, §1"}, "[11]": {"conditions": "over-representation analysis, FDR p<0.05"}}, "note": "“Also recorded” adds a separate entry of the source."}
{"smiles": "O=C1CCC(C(=O)O)O1", "note": "(centres unmarked) [5-oxo]", "values": [{"measurement": "PRODH enzyme inhibiting potency relative to N-PPG", "setting": "[1]", "result": "comparable"}, {"measurement": "activation of UPRmt and induction of mitohormesis", "setting": "[2]", "result": "do not activate the UPRmt or induce mitohormesis"}]}
{"smiles": "C#CCNCC(=O)O", "note": "[N-PPG, N-propargylglycine]", "values": [{"measurement": "crossing of the blood-brain-barrier", "setting": "[3]", "result": "capable of crossing the mammalian blood-brain-barrier"}, {"measurement": "normalization of deranged whole brain transcriptome of Htt-mut mice", "setting": "[4]; HT mice, 50 mg/kg/day orally x 9 days vs untreated H, includes TH, DRD1, ADORA2A, 50 mg/kg/day", "result": "partial-to complete normalization; also recorded: normalizes HT transcriptomes away from Htt-mut (H) and more toward wildtype (W)"}, {"measurement": "differentially expressed genes between WT, HT, W and H brains", "setting": "[4]; Study B, RNAseq, FDR p<0.05", "result": 622, "unit": "genes"}, {"measurement": "Htt-mut treated mice with full transcriptome normalization", "setting": "[4]; four HT mice, 50 mg/kg/day orally x 9 days", "result": "one of the four"}, {"measurement": "brain PRODH protein decay in Htt-mut mice", "setting": "PRODH [5]", "result": "partial mitochondrial PRODH protein degradation"}, {"measurement": "induction of chaperone HSP-60 transcripts relative to housekeeping transcripts", "setting": "HSP-60", "result": 1.7, "unit": "fold"}, {"measurement": "brain YME1L1 in Htt-mut and wildtype mice", "setting": "YME1L1 [6]", "result": "YME1L1 upregulation"}, {"measurement": "activation of UPRmt and induction of mitohormesis", "setting": "[2]", "result": "activate the mitochondrial unfolded protein response (UPRmt) and induce mitohormesis"}, {"measurement": "reduction in mean PRODH expression (PRODH signals normalized to β-actin or Rieske)", "setting": "PRODH [7]; wildtype B6/CBA mice, oral 50 mg/kg N-PPG for nine days vs saline", "result": "at least 30%"}, {"measurement": "normalized mean PRODH expression levels", "setting": "PRODH [7]; wildtype mice, oral saline, 50, 100, 150 or 200 mg/kg N-PPG", "result": "dose-dependent decline"}, {"measurement": "mitochondrial YME1L1 mRNA and protein expression", "setting": "YME1L1 [8]; WT mice, 50 mg/kg dose, brain", "result": "increased"}, {"measurement": "induction of mitochondrial protease YME1L1 transcripts relative to housekeeping transcripts", "setting": "YME1L1 [8]; single mouse brain, 200 mg/kg oral N-PPG, 9 days, RT-PCR", "result": 1.4, "unit": "fold"}, {"measurement": "increase in mean YME1L1 expression (signals normalized to β-actin or Rieske)", "setting": "YME1L1 [8]; wildtype mice, 50 mg/kg oral N-PPG vs saline, whole brain lysates, western blot", "result": "~ 40%"}, {"measurement": "health of mice at sacrifice (repeated body weight and vitality measurements)", "setting": "[9]; all Study A and B mice, week 7", "result": "healthy and asymptomatic"}, {"measurement": "systemic or neurologic side effects", "setting": "[9]; mice, daily oral 50 to 200 mg/kg N-PPG, 9 days", "result": "without any systemic or neurologic side effects; also recorded: without causing any adverse systemic or neurologic consequences"}, {"measurement": "whole brain transcriptome pathway analysis", "setting": "[10]; WT vs W mice, RNAseq, FDR p<0.05", "result": "upregulation of pathways (GO, Reactome) specifically regulating neuronal cell functions"}, {"measurement": "genes differentially expressed (p<0.05) between N-PPG treated and saline treated brains", "setting": "[10]; five WT (50 mg/kg, one 100 mg/kg, oral 9 days) vs four W brains, RNAseq", "result": 1324, "unit": "genes"}, {"measurement": "upregulated genes among the differentially expressed genes", "setting": "[10]; five WT vs four W brains, RNAseq", "result": 841, "unit": "genes"}, {"measurement": "Reactome neural pathways encoded by upregulated genes", "setting": "[10]; [11]", "result": 7}, {"measurement": "enriched Gene Ontology (GO) pathways encoded by upregulated genes", "setting": "[10]; [11]", "result": 77}]}
{"smiles": "O=C(O)C1NCCS1", "note": "(centres unmarked) [T2C]", "values": [{"measurement": "PRODH enzyme inhibiting potency relative to N-PPG", "setting": "[1]", "result": "comparable"}, {"measurement": "activation of UPRmt and induction of mitohormesis", "setting": "[2]", "result": "do not activate the UPRmt or induce mitohormesis"}]}
{"smiles": "O=C(O)C1CCCO1", "note": "(centres unmarked) [THFA]", "values": [{"measurement": "PRODH enzyme inhibiting potency relative to N-PPG", "setting": "[1]", "result": "comparable"}, {"measurement": "activation of UPRmt and induction of mitohormesis", "setting": "[2]", "result": "do not activate the UPRmt or induce mitohormesis"}]}
